This is an account of results in US20170150719A1, “FUNGICIDAL PYRAZOLES AND THEIR MIXTURES” (E I DU PONT DE NEMOURS AND COMPANY, priority 2010, published 2017).

The test system of one test is Alternaria solani. Nature of the test: Test B: tomato early blight, preventive spray on tomato seedlings, visual disease rating. The following applies: for Test B rating (% disease control): preventive spray, rating without asterisk; for pest or weed control at 200 µg/mL: Alternaria solani, in Solanum lycopersicum, read-out: Test B rating (disease control).
For another test, the system named is Septoria tritici. Nature of the test: Test F: wheat leaf blotch, preventive spray on wheat seedlings, visual disease rating. The settings on record: 100 = 100% disease control; for Test F rating (% disease control): preventive spray, rating without asterisk; for pest or weed control at 200 µg/mL: Zymoseptoria tritici. The class given is in vivo. The text has this:
(§1) A hyphen (-) indicates no test results.

For test [1], the system named is Puccinia recondita f. sp. tritici. Nature of the test: Test G: wheat leaf rust, spray after inoculation (curative) on wheat seedlings, visual disease rating. The class given is in vivo. The following applies: 100 = 100% disease control; for Test G rating (% disease control): spray after inoculation, rating without asterisk.
Excerpt: as §1

The subject of another test is Botrytis cinerea. Nature of the test: Test A: tomato Botrytis, preventive spray on tomato seedlings, visual disease rating. The settings on record: 100 = 100% disease control; for Test A rating (% disease control): preventive spray, 0 = no control relative to controls, rating without asterisk; for pest or weed control at 200 µg/mL: Botrytis cinerea, in Solanum lycopersicum, read-out: Test A rating (disease control), tomato Botrytis.

A further test deals with Septoria nodorum. Nature of the test: Test E: Septoria glume blotch, preventive spray on wheat seedlings, visual disease rating. The settings on record: 100 = 100% disease control; for Test E rating (% disease control): Septoria glume blotch on wheat, preventive spray, rating without asterisk; for pest or weed control at 200 µg/mL: Parastagonospora nodorum, in Triticum aestivum, read-out: Test E rating (disease control), Septoria glume blotch.

Test [2] deals with Puccinia recondita f. sp. tritici. Nature of the test: Test H: wheat leaf rust, preventive spray on wheat seedlings, visual disease rating. The following applies: 100 = 100% disease control; for Test H rating (% disease control): preventive spray, rating without asterisk; for pest or weed control at 200 µg/mL: read-out: Test H rating (disease control), wheat leaf rust, sprayed the day before inoculation.

The test system of test [3] is Blumeria graminis f. sp. tritici. Nature of the test: Test I: wheat powdery mildew, preventive spray on wheat seedlings, visual disease rating. The following applies: 100 = 100% disease control; for Test I rating (% disease control): preventive spray, rating without asterisk; for pest or weed control at 200 µg/mL: Blumeria graminis, in Triticum aestivum, read-out: Test I rating (disease control), wheat powdery mildew.

For a further test, the system named is Phytophthora infestans. Nature of the test: whole plant or invertebrate. The following applies: for Test C rating (% disease control): preventive spray, rating without asterisk; for pest or weed control at 200 µg/mL: Phytophthora infestans, in Solanum lycopersicum, read-out: Test C rating (disease control). Type of test: in vivo.
Where [4] appears, read: tomato early blight, 100 = 100% disease control.
Where [5] appears, read: tomato late blight, 100 = 100% disease control.
[6] abbreviates: 0 = no disease control relative to the controls.
The mark [7] stands for this setting: sprayed after inoculation, 0 = no disease control.

Take `COc1ccc(-c2c(C)nn(C)c2Nc2c(F)cc(Cl)cc2F)c(F)c1` [compound 185]: the “Test B rating (% disease control)” value in the test on Alternaria solani (setting [4]) was found to be 99%. For the same compound, the “Test F rating (% disease control)” value with Septoria tritici is reported as 100%. The “Test G rating (% disease control)” value in test [1] is listed as 0%. In the test on Botrytis cinerea (tomato Botrytis), the “Test A rating (% disease control)” value is 100%. In addition, in the test on Septoria nodorum, the “Test E rating (% disease control)” value worked out at 60%. For the same compound, the “Test H rating (% disease control)” value in test [2] (wheat leaf rust) worked out at 99%. Also, the “Test I rating (% disease control)” value in test [3] (wheat powdery mildew) came out at 100%. Moreover, the “Test C rating (% disease control)” value with Phytophthora infestans (setting [5]) was 0%.
Consider `Cc1nn(C)c(Nc2c(F)cc(F)cc2Br)c1-c1ccc(F)cc1F` [Compound 143, N-(2-bromo-4,6-difluorophenyl)-4-(2,4-difluorophenyl)-1,3-dimethyl-1H-pyrazol-5-amine], for which the pest or weed control at 200 µg/mL (in the test on Alternaria solani; with Septoria tritici (setting [6]); in test [1] (setting [7]); in the test on Botrytis cinerea (setting [6]); in the test on Septoria nodorum (setting [6]); in test [2] (0 = no disease control)) was 100% throughout. Further, the pest or weed control at 200 µg/mL turned out to be 100% in test [3] (setting [6]) and 0% with Phytophthora infestans.
With `Cc1nn(C)c(Nc2c(F)cc(Cl)cc2F)c1-c1ccc(Cl)cc1Cl` [compound 157], the “Test B rating (disease control)” value in the test with Alternaria solani (tomato early blight, 100 = 100% disease control, 0 = no disease control relative to the controls) is recorded as 97%. Further, the “Test F rating (disease control)” value with Septoria tritici (setting [6]) is 100%. For the same compound, the “Test G rating (disease control)” value in test [1] (setting [7]) came out at 27%. Further, in the test with Botrytis cinerea (tomato Botrytis, 0 = no disease control relative to the controls), the “Test A rating (disease control)” value was found to be 100%. The “Test E rating (disease control)” value in the test with Septoria nodorum (Septoria glume blotch, 0 = no disease control relative to the controls) was 87%. For the same compound, in test [2] (wheat leaf rust, sprayed the day before inoculation, 0 = no disease control), the “Test H rating (disease control)” value was found to be 100%. Moreover, the “Test I rating (disease control)” value in test [3] (wheat powdery mildew, 0 = no disease control relative to the controls) was determined as 99%. Also, the “Test C rating (disease control)” value in the test with Phytophthora infestans (tomato late blight, 100 = 100% disease control, 0 = no disease control relative to the controls) stood at 0%.
Regarding `CCOc1cc(F)c(-c2c(C)nn(C)c2Nc2c(F)cc(F)cc2Cl)c(F)c1` [compound 196], in the test on Alternaria solani (setting [4]), the “Test B rating (% disease control)” value was found to be 100%. Further, the “Test F rating (% disease control)” value with Septoria tritici was 100%. The “Test G rating (% disease control)” value in test [1] is reported as 0%. Besides, the “Test A rating (% disease control)” value in the test on Botrytis cinerea (tomato Botrytis) came to 100%. Also, in the test on Septoria nodorum, the “Test E rating (% disease control)” value is listed as 95%. For the same compound, in test [2] (wheat leaf rust), the “Test H rating (% disease control)” value was determined as 94%. For the same compound, the “Test I rating (% disease control)” value in test [3] (wheat powdery mildew) was 100%. For the same compound, in the test with Phytophthora infestans (setting [5]), the “Test C rating (% disease control)” value stood at 0%.
For `CCOc1ccc(-c2c(C)nn(C)c2Nc2c(Cl)cc(F)cc2Cl)c(F)c1` [compound 192], in the test with Alternaria solani (setting [4]), the “Test B rating (% disease control)” value is listed as 66%. The “Test F rating (% disease control)” value in the test with Septoria tritici was determined as 100%. Also, in test [1], the “Test G rating (% disease control)” value is given as 0%. Also, in the test with Botrytis cinerea (tomato Botrytis), the “Test A rating (% disease control)” value stood at 33%. Moreover, the “Test E rating (% disease control)” value with Septoria nodorum came to 0%. Further, the “Test H rating (% disease control)” value in test [2] (wheat leaf rust) was 65%. Also, the “Test I rating (% disease control)” value in test [3] (wheat powdery mildew) was 35%. Moreover, the “Test C rating (% disease control)” value in the test on Phytophthora infestans (setting [5]) came out at 0%.
Consider `Cc1nn(C)c(Nc2c(F)cc(Cl)cc2I)c1-c1ccc(F)cc1F` [compound 180], for which the “Test B rating (% disease control)” value with Alternaria solani (setting [4]) is given as 100%. In addition, in the test with Septoria tritici, the “Test F rating (% disease control)” value was determined as 100%. In test [1], the “Test G rating (% disease control)” value worked out at 98%. For the same compound, in the test with Botrytis cinerea (tomato Botrytis), the “Test A rating (% disease control)” value was determined as 100%. In addition, in the test on Septoria nodorum, the “Test E rating (% disease control)” value was 99%. The “Test H rating (% disease control)” value in test [2] (wheat leaf rust) was determined as 100%. Also, in test [3] (wheat powdery mildew), the “Test I rating (% disease control)” value is listed as 100%. In addition, the “Test C rating (% disease control)” value with Phytophthora infestans (setting [5]) stood at 9%.
Turning to `Cc1nn(C)c(Nc2c(F)cc(Br)cc2F)c1-c1c(F)cccc1F` [Compound 145, N-(4-bromo-2,6-difluorophenyl)-4-(2,6-difluorophenyl)-1,3-dimethyl-1H-pyrazol-5-amine], the pest or weed control at 200 µg/mL in the test with Alternaria solani was 0%; in the test on Septoria tritici (setting [6]), 100%; in test [1] (setting [7]) it was 0%; with Botrytis cinerea (setting [6]), 99%; in the test with Septoria nodorum (setting [6]) it was 0%; in test [2] (0 = no disease control) it was 28%. Moreover, the pest or weed control at 200 µg/mL in test [3] (setting [6]) came to 90%; with Phytophthora infestans, 0%.
